Test results published in US11578049B2, “Benzoic acid compound and method for preparing the same” (Henan Genuine Biotech Co., Ltd., priority 2018, dated 2023).
Where “and” joins values, the source holds several entries; their conditions need not be identical. Equal values may be shown once.

How the values were obtained:
[1] = Metabolic stability measured in human liver microsomes; details: for half-life at 2 μg/mL: human, pH 7.4; for t1/2 (elimination half-life): human liver microsomes 1.0 mg/ml, compound 2 μg/mL, NADPH 2 mM, pH 7.4, 37° C.
[2] = system: rats exposed to cerebral ischemia and reperfusion; assay: Cerebral blood flow in rats exposed to cerebral ischemia and reperfusion (tMCAO), laser Doppler; format: in vivo, Sprague Dawley (SD) rats; details: for Reperfusion/Postoperative (cerebral blood flow recovery): 2 hours ischemia, 3 mg/kg iv immediately after reperfusion; for Postoperative/Preoperative (cerebral blood flow): blood flow immediately after initiation of ischemia relative to before the operation, drug 3 mg/kg iv given immediately after reperfusion
Experimental: (§1) 1.2 Experimental procedure: Male Sprague Dawley (SD) rats was subjected to operation after experimental adaption for 5-7 days, with a weight of 200-250 g. The rats were anesthetized by intraperitoneal injection of 0.35 mL/100 g 10% chloral hydrate, and positioned on a temperature-controlled, operating surface. The common carotid artery was isolated from surrounding nerves to the bifurication between the external carotid artery and the internal carotid artery. The external carotid artery was then isolated. A sterile middle cerebral artery occlusion (MCAO) suture was advanced through external carotid artery into the internal carotid artery (about 18 mm±0.5 mm from the point of the carotid bifurication), effectively occluding the middle cerebral artery. The suture was withdrawn after 2 hours ischemic period to simulate clinical reperfusion. All rats were scored according to Longa scoring system, in which the rats with a total score less than 1 were withdrawn. The rats were kept on a heating blanket and allowed to recover from anesthesia. A neurobehavioral examination was performed at 24 h after awakening. Blood was drawn from each rat under anesthesia, collected in a tube containing K2-EDTA as anticoagulant for stabilizing the blood samples, centrifuged to separate supernatant from precipitate, and stored at […]. Then the rats were euthanized. The brains were cut into slices, stained with 2,3,5-triphenyltetrazolium chloride (TTC), and used to determine the infarct area. The experiment was complete within 3 days, with 3-4 rats per group daily.
1.3 Intraoperative monitoring: Transcranial measurement of cerebral blood flow was made using […] at three points, namely before the operation, immediately after the initiation of ischemia, and immediately after reperfusion.
(§2) 1.7 Drug preparation: The drugs to be tested were accurately weighed, dissolved in physiological saline to give a final concentration of 1.5 mg/mL.
(§3) 1.8 Administration method: The drugs were removed from the refrigerator and […] to room temperature before the rats were dosed. The dosing volume was 2 mL/kg.
(§4) All data was imported into an Excel worksheet, and expressed as mean±standard error of the mean. Statistical significance was determined by one-way ANOVA with Dunnett's multiple comparison test (*P<0.05, **P<0.01).

mice = details: for median lethal dose: acute toxicity test
[3] = Physical properties of the salts (water absorption); format: physicochemical; details: solid salt
Description: 5. The type of the salt of the compound 5 affects its physical properties. […] In addition, the excess alkali leads to the closed-loop reaction between hydroxyl group and fluorine atom. Potassium hydroxide contacts the compound 12 to yield a potassium salt which is not a solid. […] Therefore, high-purity of potassium salt and sodium salt products are not easy to obtain in this disclosure, which is unfavorable to large-scale production. Therefore, the following compounds are also included in the present invention: […]

[4] = system: rats exposed to cerebral ischemia and reperfusion; assay: Infarct area of rats exposed to cerebral ischemia and reperfusion (tMCAO), TTC staining; format: in vivo, Sprague Dawley (SD) rats; details: 3 mg/kg iv immediately after reperfusion; for Cerebral infarction ratio: TTC, infarct area / total brain area; for Percentage inhibition of cerebral infarction: versus model group
Experimental: as §1, §2, §3
1.9.2 Cerebral infarction ratio: The rats were euthanized with chloral hydrate (330 mg/kg anesthesia), given by CO2 inhalation, and blood was drawn by cardiac puncture. The brains were removed from the skull and cut into 2 mm coronal slices using a rat brain matrix. Each slice was stained with 1% TTC at 37° C. for 5 minutes, protected from light, and were photographed. The ratio of infarct area was then determined using an image analysis software Image Pro Plus 6.0. The infarct areas were summed and divided by total brain area to yield the ratio of infarct area.
as §4

in vivo = details: mouse
in vitro = details: human, microsomes, pH 7.4
[5] = text: recovery relative to preoperative, 3 mg/kg

O=C([O-])c1cc(Br)ccc1C(O)CCC1CC1.[Na+] (centres unmarked) [Compound 14]
half-life at 2 μg/mL ([1]; human liver microsomes): 2.44 h | Reperfusion/Postoperative (cerebral blood flow recovery) ([2]; recovery relative to preoperative): 88.3% | Postoperative/Preoperative (cerebral blood flow) [2]: 13.5%

O=C([O-])c1cc(Br)ccc1C(O)CCCCF.[Na+] (centres unmarked) [Compound 15]
median lethal dose (mice): 1036 mg | water absorption in the air [3]: easy to absorb water in the air | half-life at 2 μg/mL ([1]; microsomes): 19.1 h | Cerebral infarction ratio ([4]; 3 mg/kg): 12.0% | Cerebral infarction ratio ([4]; listed as compound 15, 3 mg/kg): 12.0% | Percentage inhibition of cerebral infarction ([4]; 3 mg/kg): 75.3% | Percentage inhibition of cerebral infarction ([4]; listed as compound 15, 3 mg/kg): 75.3% | LD50 (in vivo): 1040 mg/kg | Reperfusion/Postoperative (cerebral blood flow recovery) [2, 5]: 95.6% | Reperfusion/Postoperative (cerebral blood flow recovery) ([2]; text: recovery relative to preoperative, listed as compound 15, 3 mg/kg): 95.3% and 95.6% | Postoperative/Preoperative (cerebral blood flow) [2]: 16.8%

O=C(O)c1cc(Br)ccc1C(O)CCCCF (centres unmarked) [Compound 17]
water absorption in the air [3]: no water absorption | Cerebral infarction ratio [4]: 11.8% | Percentage inhibition of cerebral infarction [4]: 77.4% | half-life at 2 μg/mL (in vitro): 19.3 h | LD50 (in vivo; intravenous): 1100 mg/kg | Reperfusion/Postoperative (cerebral blood flow recovery) [2, 5]: 95.6% and 95.3% | Postoperative/Preoperative (cerebral blood flow) [2]: 15.5%

CCCCC(O)c1ccccc1C(=O)[O-].[K+] (centres unmarked) [Potassium butylphthalide]
median lethal dose (mice): 373 mg | LD50 (median lethal dose) (mice; injected via tail vein): 373 mg/kg | t1/2 (elimination half-life) ([1]; listed as Potassium Butylphthalide): <1 h | t1/2 (elimination half-life) ([1]; listed as potassium butylphthalide): less than 1 h | Cerebral infarction ratio ([4]; 3 mg/kg): 37.5% | Cerebral infarction ratio ([4]; listed as potassium butylphthalide, 3 mg/kg): 37.5% | Percentage inhibition of cerebral infarction ([4]; 3 mg/kg): 26.4% | Percentage inhibition of cerebral infarction ([4]; listed as butylphthalide potassium, 3 mg/kg): 26.4%
